Measured values from patent publication US8168628B2, “Conjugated psychotropic drugs and uses thereof” (Ramot at Tel-Aviv University Ltd., priority 2001, dated 2012).
Like-named read-outs stand apart in the source and are kept apart here.

What was measured:
[1] = test system: U-937; assay: Proliferation test, U-937 cells; type: cell-based; conditions: Homo sapiens, linear regression of survival percentage
Experimental: (§1) Cell lines: Human prostate carcinoma (PC-3), human colon carcinoma (HT-29), murine melanoma (B-16) and its drug resistant subclone (B-16 MDR), mouse fibroblasts (3T3), myeloid leukemia (HL 60) and its drug resistant subclone (HL 60 MX2), endometrium cell line (MES SA) and its drug resistant subclone (MES DX5), jurkat T lymphoma and monocyte leukemia (U-937), were used in this study.
(§2) Proliferation of cancer and normal cells: Proliferation was measured by neutral red assay or by a fluorometric assay quantitating DNA content. In the neutral red assay, the neutral red is absorbed by lysosomes, thus causing coloring of living cells. Quantitative analysis is performed by colorimetric assay (ELISA reader at 550 nm). In the fluorometric assay, alamar blue is used as a redox indicator. Alamar blue fluorescence was measured at an excitation wavelength of 544 nm and an emission wavelength of […] (FLUOstar BMG Lab Technologies, Offenburg, Germany).
(§3) The cells were sub-cultured and the tested compounds were added thereto in increasing concentrations. The IC50 values were determined by linear regression of the survival percentage of the cells.

[2] = test system: MES SA; assay: Proliferation test, MES SA cells; type: cell-based; conditions: Homo sapiens, linear regression of survival percentage
Experimental: as §1, §2, §3

[3] = test system: HL 60; assay: Proliferation test, HL 60 cells; type: cell-based; conditions: Homo sapiens, linear regression of survival percentage
Experimental: as §1, §2, §3

[4] = test system: rats; assay: Behavioral criteria: sedation and mobility score in rats; conditions: score 0-3; for sedation and mobility score, 30 min / sedation and mobility score, 60 min / sedation and mobility score, 90 min / sedation and mobility score, 120 min / sedation and mobility score, 180 min / sedation and mobility score, 240 min: i.p., 5 mg/kg perphenazine, 7.5 mg/kg fluphenazine or equimolar conjugate; for Sedation score: oral, 4-6 hours after treatment
Experimental: The effect of the administration of the tested compound on animals behavior was measured by evaluating the degree of animal sedation and mobility following the treatment described hereinabove, using a score of from 0 to 3. A score of 0 represents active and mobile animals, 1 represents calm and mobile animals, 2 represents calm and immobile animals and 3 represents completely ataxic and non-alert animals.

[5] = test system: HL 60 MX2 (MDR); assay: Proliferation test, HL 60 MX2 (MDR) cells; type: cell-based; conditions: Homo sapiens, HL60/MX2; linear regression of survival percentage
Experimental: as §1, §2, §3

[6] = test system: B16; assay: Proliferation test, B16 melanoma cells; type: cell-based, murine; conditions: for IC50: Mus musculus, B16, linear regression of survival percentage
Experimental: as §1, §2, §3

[7] = test system: rats; assay: Catalepsy in rats, “wall” test
Experimental: (§6) Animals: Young adult male rats (150-230 grams) were purchased from Harlan (Israel). Animals were divided 2-5/cage and housed in controlled conditions in the animal room for a week prior to the experiments. The experiments were conducted with naive animals, in a double blind procedure. In each experiment various treatment groups (about 5-10 animals each) were tested.
(§7) Catalepsy in rats: The manifestation of the extrapyramidal adverse effects induced by typical neuroleptics was evaluated by the appearance of stereotypic cataleptic behavior in rats following the neuroleptic treatment. Catalepsy was determined by two methods: (i) by measuring the time it took an animal hanging on a cage wall to move its hind legs and reach a flat surface (the “wall” test); and (ii) rats were placed on a flat surface with their anterior limbs leaning on a flat bar (5.5 cm height) resembling a piano playing position. Catalepsy was determined by the time it took an animal to descend and reach the flat surface (the “piano” test). The maximum time of follow up was 2 minutes and these measurements were performed hourly and individually for each animal. These tests provide an assessment of central dopamine (DA) blocking activity and are acceptable criteria for extrapyramidal symptoms induced by anti-psychotic drugs [10].
(§8) A control animals group was treated with the vehicle (lactic acid) only.

[8] = test system: MES SA DX5 (MDR); assay: Proliferation test, MES SA DX5 (MDR) cells; type: cell-based; conditions: Homo sapiens, linear regression of survival percentage
Experimental: as §1, §2, §3

[9] = test system: Jurkat T lymphoma cells; assay: Proliferation / viability test, Jurkat T lymphoma cells; type: cell-based; conditions: Homo sapiens
Experimental: as §1, §2, §3

[10] = test system: PC-3; assay: Proliferation test, PC-3 cells; type: cell-based; conditions: Homo sapiens, linear regression of survival percentage
Experimental: as §1, §2, §3

[11] = test system: 3T3; assay: Proliferation test, 3T3 fibroblasts; type: cell-based; conditions: Mus musculus, NIH3T3; linear regression of survival percentage
Experimental: as §1, §2, §3

[12] = test system: Normal rat fibroblasts; assay: Proliferation test, normal rat fibroblasts; type: cell-based; conditions: Fibroblast, linear regression of survival percentage
Experimental: The primary cultures of rat fibroblasts were obtained from neonatal rats using known procedures.
as §2, §3

[13] = in vivo; conditions: ICR, mouse, in vivo, ip
Experimental: (§4) Toxicity: In vitro toxicity was determined by measuring the effect of the tested compounds (either known neuroleptics or the chemical conjugates of the invention) on primary cultures of neurons and whole brain neuron and glia cells obtained from the brains of neonatal mice. In vitro toxicity of perphenazine and its chemical conjugate AN 168 was also determined with rat myocytes. Acute toxicity in vivo as determined by the LD50 was evaluated on 2 months old ICR mice following the administration of a single intraperitoneal bolus-dose of drug.
(§5) The in vivo toxicity of perphenazine and AN 167 was evaluated following the intraperitoneal administration of a single dose thereof to mice.

[14] = test system: ICR mice; assay: Acute toxicity in vivo (LD50) in mice; conditions: single intraperitoneal dose, compared with perphenazine (FIG. 21)
Experimental: as §4, §5

[15] = test system: prolactin; assay: Prolactin blood level in rats (enzyme immunometric assay); type: in vivo, rat; conditions: i.p.; measured at 0, 60 and 120 min after treatment
From the text: Prolactin secretion: Typical neuroleptics induce hyperprolactinemia, which is frequently associated with gallactorehea and impaired gonadal and sexual function. The measurement of the circulatory plasma prolactin level was therefore used as a sensitive biochemical marker for the psychotropic activity of the known neuroleptics and the chemical conjugates of the present invention, following intraperitoneal or oral administration thereof. Thus, blood was collected from the punctured eye orbital of rats under ether anesthesia and the assay was performed using Millennia, rat prolactin enzyme immunometric assay-kit (DPC, USA).

[16] = test system: HT-29; assay: Proliferation test, HT-29 cells; type: cell-based; conditions: Homo sapiens, linear regression of survival percentage
Experimental: as §1, §2, §3

[17] = test system: B16 MDR; assay: Proliferation test, B16 MDR cells; type: cell-based, murine; conditions: Mus musculus; linear regression of survival percentage
Experimental: as §1, §2, §3

[18] = test system: mice; assay: Catalepsy in mice (bar between two cages); type: in vivo, mouse; conditions: adult male mice, 1.5 mg/kg perphenazine or equimolar dose (FIG. 7a)
Experimental: Young adult male and female mice were purchased from Harlan, Israel. The animals were housed for 4-7 days under controlled conditions prior to experimentation. Experiments were conducted in a double blind procedure. In each experiment various treatment groups (about 10 animals each) were tested.
Catalepsy in mice: The appearance of stereotypic cataleptic behavior in mice following the neuroleptic treatment was measured in two different sets of experiments.
The catalepsy was determined using a system of two cages and a bar therebetween. The mouse was hung in the middle of the bar, and the percentage of animals reaching the target within 2 minutes was monitored 1 hour, 2 hours and 3 hours following the treatment.
The catalepsy was determined using the system described hereinabove. The mouse was hung in the middle of the bar, and the time it took the animal to reach the target was measured.

[19] = test system: C6 rat glioma cells; assay: Viability of C6 rat glioma cells (neutral red); type: cell-based; conditions: Rattus norvegicus, Glioma cell; 24 hours treatment, neutral red, up to 100 μM (FIG. 14)
Experimental: as §2
The cells were sub-cultured and the tested compounds were added thereto in increasing concentrations, up to 100 μM.

[20] = test system: rat myocytes; conditions: Wistar, rat
Experimental: as §4

[21] = test system: C6 rat glioma cells; assay: DNA fragmentation in C6 rat glioma cells (propidium iodide flow cytometry); type: cell-based; conditions: Cisplatin 30 μM; perphenazine 25 and 50 μM; AN 168 25, 50 μM (FIG. 18)
Experimental: Apoptosis and DNA fragmentation: Fragmentation of cell nuclei was studied by flow cytometric analysis of propidium iodide-stained cells. This analysis was performed using a FACScan (Becton Dickinson, Mountain View, Calif.) equipped with an argon ion laser adjusted to an excitation wavelength of 480 nm and with a Doublet Discrimination Module (DDM). Lysis II (Becton Dickinson) software was used for data acquisition. Apoptotic nuclear changes were evaluated according to the criteria of Nicolletti et al..
The DNA fragmentation was determined by the propidium iodide flow cytometric method described hereinabove.

[22] = test system: rats; assay: Catalepsy in rats, “piano” test, oral administration; type: in vivo, rat; conditions: oral, 10 and 20 mg/kg perphenazine or equimolar doses of conjugate
Experimental: To this end, the induced catalepsy, the prolactin blood levels and the animal behavior were measured as described hereinabove, following oral administration of either AN 168 or perphenazine alone to rats. Animals, divided 5 per cage, were treated by oral administration of perphenazine or AN-168 dissolved in 1% lactic acid. Control animals received vehicle (lactic acid) only.
The catalepsy induced by oral administration of various concentrations of AN 168 and perphenazine was measured by the “wall” test and the “piano” test described hereinabove. The time course of catalepsy was measured 4-24 hours following oral administration of 2.5, 5, 10 and 20 mg/kg perphenazine and respective equimolar doses of 3.5, 7, 14 and 28 mg/kg AN-168. The total catalepsy represents the sum of average catalepsy per treated group during the 4-24 hours of follow-up.

[23] = test system: rats; conditions: rat, in vivo, ip, 5 mg/kg
Experimental: as §6, §7, §8

[24] = linear regression of survival percentage, read-out: IC50, JURKAT

Row | SMILES | IC50 [1] | IC50 [2] | IC50 [3] | sedation and mobility score, 30 min [4] | sedation and mobility score, 60 min [4] | sedation and mobility score, 90 min [4] | sedation and mobility score, 120 min [4] | sedation and mobility score, 180 min [4] | sedation and mobility score, 240 min [4] | IC50 [5] | IC50 [6] | IC50 [8] | IC50 [9, 24] | IC50 [10] | IC50 [11] | LD50 at 2 weeks [13] | time at which prolactin blood level peaked [15] | IC50 [16] | IC50 [17] | further results
1 | CCCC(=O)OCCN1CCN(CCCN2c3ccccc3Sc3ccc(Cl)cc32)CC1 [AN-167, Perphenazine Butyrate] | 23.3 µM | 17.2 µM | 17.3 µM | 0 | 1 | 1 | 2 | 2 | 2 | 19.9 µM | 17.3 ± 4.5 µM | 20.9 µM | 11.4 µM | 49.1 µM | 21.7 µM | 120 mg/kg | 60 min | 13.3 ± 2.4 µM | 41.5 ± 1.8 µM | effect on the proliferation of B16 murine melanoma cells ([6]; representative experiment (FIG. 13)): relatively active as anti-proliferative drugs; average of total catalepsy as percentage of the perphenazine-induced catalepsy ([7]; equimolar doses, four independent experiments (FIG. 6)): lower catalepsy as compared with perphenazine; induced catalepsy, SAR studies ([7]; i.p., 5 mg/kg perphenazine and equimolar conjugates, compared with perphenazine (FIG. 2)): significant reduction of the induced catalepsy; total catalepsy ([7]; i.p., 5 mg/kg perphenazine and equimolar conjugates, sum of determinations at 0, 60, 120 min (FIG. 1a)): did not induce catalepsy at all; total catalepsy ([7]; i.p., 5 mg/kg perphenazine, 7.5 mg/kg fluphenazine, equimolar conjugates, sum 0-420 min, normalized to parent drug (FIG. 3a)): reduced catalepsy significantly; time course of catalepsy ([7]; i.p., over a period of 7 hours (FIGS. 4a, 4b)): reduced catalepsy as compared with perphenazine; IC50 [12]: 31.6 µM; time course of mortality [14]: delayed
2 | OCCN1CCN(CCCN2c3ccccc3Sc3ccc(Cl)cc32)CC1 [Perphenazine, perphenazine, reference compound] | 21.3 µM | 15.3 µM | 19.8 µM | 1 | 2 | 2 | 3 | 2 | 2 | 22.6 µM | 12.5 ± 1.29 µM | 16.2 µM | 11.3 µM | 23.1 ± 2.3 µM | 26.6 µM | 109 mg/kg | 60 min | 8.85 ± 2.7 µM | 18.4 ± 5.4 µM | catalepsy: percentage of animals reaching the target within 2 minutes [18]: higher catalepsy; IC50 [19]: 19.2 µM; Sedation score ([4]; 2.5 mg/kg): 0; Sedation score ([4]; 5 mg/kg): 1; Sedation score ([4]; 10 mg/kg): 2; Sedation score ([4]; 20 mg/kg): 3; decrease in cells viability [20]: 20%; DNA fragmentation [21]: induced a dramatically increase in DNA fragmentation; muscular rigidity and tachypnea [22]: muscular rigidity and tachypnea were observed; IC50 ([9]; alamar blue method (FIG. 15), read-out: IC50, Jurkat T lymphoma cells viability): 16 µM; time at which catalepsy peaked ([23]; male): 2 h; total catalepsy [23]: catalepsy was induced
